Series [1] has as its target Bromodomain-containing protein 4 (Homo sapiens, UniProt O60885, Y390A). Kind of series: Displacement of Alexa Fluor 647 labelled ligand from recombinant human N-terminal 6His-tagged BRD4-BD1 Y390A mutant (1 to 477 residue) expressed in Escherichia coli incubated for 30 mins by TR-FRET assay. For orientation: TR-FRET usually uses a lanthanide donor and a delayed reading to cut background.

Series [2] has as its target T1, Bromodomain-containing protein 4 (Homo sapiens, UniProt O60885). Kind of series: Inhibition of BRD4 in human PBMC assessed as reduction in LPS-induced IL-6 secretion incubated for 18 to 24 hrs by MSD assay.
In another series the target is Cytochrome P450 3A4 (Homo sapiens, UniProt P08684). Kind of series: Inhibition of recombinant human CYP3A4 expressed in Escherichia coli using VG as probe substrate incubated for 15 to 60 mins by fluorometric assay. Format: ADME.
Sequence of Cytochrome P450 3A4 (P08684 whole entry): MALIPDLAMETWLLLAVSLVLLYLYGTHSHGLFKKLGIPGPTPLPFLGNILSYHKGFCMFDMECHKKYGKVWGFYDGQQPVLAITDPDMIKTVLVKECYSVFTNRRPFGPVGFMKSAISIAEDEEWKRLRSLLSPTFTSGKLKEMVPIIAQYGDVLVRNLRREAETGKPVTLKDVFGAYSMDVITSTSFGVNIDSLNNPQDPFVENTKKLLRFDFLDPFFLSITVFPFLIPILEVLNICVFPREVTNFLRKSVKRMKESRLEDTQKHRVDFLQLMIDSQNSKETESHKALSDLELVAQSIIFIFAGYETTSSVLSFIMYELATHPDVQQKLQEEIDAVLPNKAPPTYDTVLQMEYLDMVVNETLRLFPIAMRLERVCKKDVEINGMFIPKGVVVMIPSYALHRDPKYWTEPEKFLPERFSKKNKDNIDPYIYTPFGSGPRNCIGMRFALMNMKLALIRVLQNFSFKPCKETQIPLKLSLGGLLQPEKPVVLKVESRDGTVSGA
Series [3] concerns the target T1, Bromodomain-containing protein 4. Kind of series: Inhibition of BRD4 in human whole blood assessed as reduction in LPS-induced IL-6 secretion preincubated for 30 mins followed by LPS stimulation and measured after 24 hrs by MSD assay. It counts as tissue-based.
Another series concerns the target Cytochrome P450 2C9 (Homo sapiens, UniProt P11712).
The conditions of series [4]: human, hepatocytes, 2 h, 0.5 µM.
For series [5] the following is noted: dog, hepatocytes, 2 h, 0.5 µM.
For series [6] the following is noted: rat, hepatocytes, 2 h, 0.5 µM.
Another series in a line: physchem. The settings on record: FaSSIF, pH 6.5.

Here are results for 33 compounds from ChEMBL document CHEMBL4842350, “Discovery of a Novel Bromodomain and Extra Terminal Domain (BET) Protein Inhibitor, I-BET282E, Suitable for Clinical Progression” (J Med Chem, 2021).

Converted amounts (≈) assume the structure as drawn. Where only a bound is given, the exact number is not on record here.

Sequence of Cytochrome P450 2C9 (P11712 whole entry): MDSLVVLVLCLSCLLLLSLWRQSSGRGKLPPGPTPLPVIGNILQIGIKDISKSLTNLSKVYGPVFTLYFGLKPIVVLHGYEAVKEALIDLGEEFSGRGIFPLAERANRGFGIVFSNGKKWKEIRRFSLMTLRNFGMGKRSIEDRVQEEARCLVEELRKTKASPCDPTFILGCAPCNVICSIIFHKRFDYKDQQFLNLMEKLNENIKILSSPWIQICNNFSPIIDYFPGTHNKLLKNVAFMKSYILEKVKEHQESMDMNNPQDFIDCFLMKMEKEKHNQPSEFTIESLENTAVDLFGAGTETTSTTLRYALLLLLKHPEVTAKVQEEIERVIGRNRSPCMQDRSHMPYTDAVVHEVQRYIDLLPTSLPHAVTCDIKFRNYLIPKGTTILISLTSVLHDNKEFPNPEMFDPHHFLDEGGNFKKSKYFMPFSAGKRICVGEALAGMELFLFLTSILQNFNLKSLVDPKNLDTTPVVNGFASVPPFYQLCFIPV
Description for Cytochrome P450 2C9: Inhibition of recombinant human CYP2C9 expressed in Escherichia coli using FCA as substrate incubated for 15 to 60 mins by fluorometric assay
Description for physchem: Solubility of the compound in FaSSIF at pH 6.5 measured after 30 mins by HPLC analysis

As a reminder, the IC50 is the point on the concentration scale where inhibition reaches its midpoint. Regarding `COc1cc2c(cc1-c1c(C)noc1C)ncc1[nH]c(=O)n(C3CCNCC3)c12`, the IC50 in [1] was 2000 nM; in [2] it was 15800 nM.

As to `COCCNc1nc2cnc3cc(-c4c(C)noc4C)c(OC)cc3c2n1Cc1ccccn1`, the IC50 on Cytochrome P450 3A4 is 15.8 µM; in series [3], 398 nM; against Cytochrome P450 2C9, 31.6 µM; in [1] it was 31.6 nM; in series [2] it was 100 nM.

Consider `COCc1nc2cnc3cc(-c4c(C)noc4C)c(OC)cc3c2n1CC1CCOCC1`, for which the results for the IC50 in series [1] and in series [2] were 79.4 nM and 398 nM, respectively.

With `COc1cc2c(cc1-c1c(C)noc1C)ncc1[nH]c(=O)n(CCN(C)C)c12`, the IC50 was 794 nM in series [1] and 1580 nM in series [2].

As to `COCC(C)n1c(C2CCOCC2)nc2cnc3cc(-c4c(C)noc4C)c(OC)cc3c21` (racemic), the figures for the IC50 in series [3], in series [1] and in series [2] were 398 nM, 100 nM and 126 nM, respectively.

As for `COc1cc2c(cc1-c1c(C)noc1C)ncc1nc(C(C)C)n(Cc3ccccn3)c12`, the IC50 in series [1] is 39.8 nM; in [2], 158 nM.

Take `COc1cc2c(cc1-c1c(C)noc1C)ncc1[nH]c(=O)n(CC3CCOC3)c12` (racemic): the values for the IC50 in series [1] and in series [2] were 631 nM and 3980 nM, respectively.

For the compound `COc1cc2c(cc1-c1c(C)noc1C)ncc1nc(N)n(Cc3ccccn3)c12`, the IC50 in [1] was 39.8 nM; in [2] it was 158 nM.

For the compound `CCNC(=O)C[C@@H]1N=C(c2ccc(Cl)cc2)c2cc(OC)ccc2-n2c(C)nnc21` [MOLIBRESIB], the CLint was less than 0.86 mL/min/g liver in [4], less than 1.7 mL/min/g liver in [5] and less than 0.86 mL/min/g liver in series [6].

Turning to `COc1cc2c(cc1-c1c(C)noc1C)ncc1nc(C3CCOCC3)n(Cc3ccccn3)c12`, the IC50 is 63.1 nM in series [1] and 251 nM in [2].

In the case of `COc1cc2c(cc1-c1c(C)noc1C)ncc1[nH]c(=O)n(CC3CC3)c12`, the IC50 in series [1] is 631 nM; in series [2], 398 nM.

`COc1cc2c(cc1-c1c(C)noc1C)ncc1[nH]c(=O)n(C(C)C)c12`: the IC50 is 1260 nM in series [1] and 3160 nM in series [2].

On to `COc1cc2c(cc1-c1c(C)noc1C)ncc1[nH]c(=O)n(CC3CCCOC3)c12` (racemic), for which the results for the IC50 in series [1] and in [2] were 251 nM and 1260 nM, respectively.

For the compound `COCCNc1nc2cnc3cc(-c4c(C)noc4C)c(OC)cc3c2n1[C@H](C)c1ccccn1`, the IC50 at Cytochrome P450 3A4 was 7.9 µM; in series [3] it was 158 nM; against Cytochrome P450 2C9 it was 7.9 µM; in [1], 12.6 nM; in series [2] it was 25.1 nM.

As to `COc1cc2c(cc1-c1c(C)noc1C)ncc1[nH]c(=O)n(CC3CCN(C)CC3)c12`, the IC50 is 1260 nM in [1] and 3160 nM in [2].

Regarding `CCc1nc2cnc3cc(-c4c(C)noc4C)c(OC)cc3c2n1Cc1ccccn1`, the IC50 is 31.6 nM in series [1] and 158 nM in series [2].

Broadly, the solubility is how much of the substance goes into solution per volume. Lower therefore signals a poorly soluble substance. Regarding `COc1cc2c(cc1-c1c(C)noc1C)ncc1[nH]c(=O)n([C@H](C)c3ccccn3)c12`, the CLint was less than 0.86 mL/min/g liver in [4], 9.8 mL/min/g liver in [5] and less than 0.86 mL/min/g liver in series [6]. In the series “physchem”, this compound came in with a solubility at 0.5 h of 66 µg/mL (≈ 159 µM).

In the case of `COc1cc2c(cc1-c1c(C)noc1C)ncc1[nH]c(=O)n(C3CCOCC3)c12`, the IC50 in series [1] and in series [2] was 1580 nM each time.

Regarding `COc1cc2c(cc1-c1c(C)noc1C)ncc1nc(N(C)C)n(CC3CCOCC3)c12`, the IC50 is 10 µM on Cytochrome P450 3A4; 251 nM in [3]; 1.3 µM on Cytochrome P450 2C9; 31.6 nM in series [1]; 39.8 nM in series [2].

Regarding `COc1cc2c(cc1-c1c(C)noc1C)ncc1[nH]c(=O)n(CC3CCOCC3)c12`, the IC50 in [1] is 100 nM; in series [2], 200 nM.

With `COCC(C)n1c(=O)[nH]c2cnc3cc(-c4c(C)noc4C)c(OC)cc3c21` (racemic), the figures for the 50% inhibitory concentration (IC50) in series [1] and in [2] were 631 nM and 1580 nM, respectively.

With `COCc1nc2cnc3cc(-c4c(C)noc4C)c(OC)cc3c2n1Cc1ccccn1`, the IC50 in series [1] was 63.1 nM; in [2] it was 398 nM.

For the compound `COc1cc2c(cc1-c1c(C)noc1C)ncc1nc(N3CCOCC3)n(CC3CCOCC3)c12`, the results for the concentration for half-maximal inhibition (IC50) in [3], in series [1] and in series [2] were 251 nM, 39.8 nM and 25.1 nM, respectively.

With `COc1cc2c(cc1-c1c(C)noc1C)ncc1nc(C3CCOCC3)n(C(C)C3CCOCC3)c12` (stereo not drawn), the figures for the half-maximal inhibitory concentration (IC50) in series [3], in [1] and in [2] were 200 nM, 31.6 nM and 100 nM, respectively.

For `CCCC(C)n1c(=O)[nH]c2cnc3cc(-c4c(C)noc4C)c(OC)cc3c21` (stereo not drawn), the IC50 in [1] and in [2] was 126 nM each time.

Turning to `COCc1nc2cnc3cc(-c4c(C)noc4C)c(OC)cc3c2n1C(C)COC` (racemic), the values for the IC50 in series [1] and in [2] were 200 nM and 631 nM, respectively.

With `COc1cc2c(cc1-c1c(C)noc1C)ncc1[nH]c(=O)n(CC(C)C)c12`, the IC50 in series [1] is 794 nM; in series [2], 1000 nM.

For `COC[C@H](C)n1c(C2CCOCC2)nc2cnc3cc(-c4c(C)noc4C)c(OC)cc3c21`, the IC50 in series [3] is 316 nM; in [1], 158 nM; in series [2], 501 nM.

Consider `COc1cc2c(cc1-c1c(C)noc1C)ncc1[nH]c(=O)n(C(C)C3CCOCC3)c12` (racemic), for which the half-inhibitory concentration (IC50) in [1] was 158 nM; in series [2] it was 200 nM.

Turning to `COc1cc2c(cc1-c1c(C)noc1C)ncc1nc(C3CCOCC3)n(CC3CC3)c12`, the IC50 in [3] was 2000 nM; in series [1], 126 nM; in series [2], 316 nM.

Take `COc1cc2c(cc1-c1c(C)noc1C)ncc1nc(C)n(Cc3ccccn3)c12`: the IC50 in series [1] and in series [2] was 39.8 nM throughout.

Consider `CCCc1nc2cnc3cc(-c4c(C)noc4C)c(OC)cc3c2n1Cc1ccccn1`, for which the IC50 in series [1] was 25.1 nM; in series [2], 126 nM.

Turning to `COc1cc2c(cc1-c1c(C)noc1C)ncc1[nH]c(=O)n(Cc3ccccn3)c12`, the IC50 was 158 nM in [1] and 501 nM in series [2].
